Drawing on patent US20130109682A1, “CYCLIC ETHER COMPOUNDS USEFUL AS KINASE INHIBITORS” (NOVARTIS AG, priority 2010, published 2013), this text covers IC50 and EC50 for 17 compounds.

One experiment deals with PIM1 (Homo sapiens, UniProt P11309). Put plainly: KinaseGlo Pim1 ATP depletion assay. In kind it is biochemical. In a few lines: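 2.5 nM PIM1 preincubated 15 min with compound and 40 μM BAD peptide in 50 mM HEPES pH 7.5, 5 mM MgCl2, 1 mM DTT, 0.05% BSA, 2.5% DMSO. The reaction was started with 20 μM ATP (final) and run to about 50% ATP depletion. Remaining ATP read by KinaseGlo Plus luminescence to give IC50.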
Sequence of PIM1 (P11309 whole entry): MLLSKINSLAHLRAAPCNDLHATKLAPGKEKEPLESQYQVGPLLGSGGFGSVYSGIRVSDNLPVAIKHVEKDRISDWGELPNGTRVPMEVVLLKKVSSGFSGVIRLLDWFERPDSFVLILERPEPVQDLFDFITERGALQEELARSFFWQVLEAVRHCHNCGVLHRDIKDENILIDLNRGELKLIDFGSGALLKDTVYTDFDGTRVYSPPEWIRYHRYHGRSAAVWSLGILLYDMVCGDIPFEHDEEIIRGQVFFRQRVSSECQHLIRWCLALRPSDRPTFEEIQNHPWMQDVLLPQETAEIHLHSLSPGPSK

The target of another experiment is PIM2 (Homo sapiens, UniProt Q9P1W9). Briefly: KinaseGlo Pim2 ATP depletion assay. The experiment is classed as biochemical. In a few lines:
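Luminescent ATP-depletion read-out of PIM2 phosphorylating BAD peptide (RSRHSSYPAGT-OH). Final conditions: 5 nM PIM2, 4 μM ATP, 10 μM peptide, 2.5% DMSO in 50 mM HEPES pH 7.5, 5 mM MgCl2, 1 mM DTT, 0.05% BSA. Enzyme–peptide preincubated 15 min with compound; reaction run to ~50% ATP depletion.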

Another experiment deals with PIM3 (Homo sapiens, UniProt Q86V86). Put plainly: KinaseGlo Pim3 ATP depletion assay. In kind it is biochemical. A digest of the protocol:
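Kinase was preincubated 15 min with BAD peptide in HEPES pH 7.5/MgCl2/DTT/BSA before ATP was added. Final concentrations were 40 μM ATP, 100 μM BAD peptide and 2.5% DMSO, with 5 nM enzyme. The reaction ran to ~50% ATP depletion and remaining ATP was read by KinaseGlo Plus luminescence.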
In general terms: Kinase-Glo reads ATP consumption through a luciferase reaction.

For another experiment, the target named is GSK3β (Homo sapiens, UniProt P49841). Briefly: GSK3β ATP depletion assay. The experiment is classed as biochemical. The following applies: read-out: GSK3b IC50. In a few lines: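 Human GSK3β (5 nM) preincubated 15 min with 10 μM biotinylated phospho-CREB peptide in pH 7.5 Tris buffer (15 mM MgCl2, 1 mM DTT, 0.1% BSA, 2.5% DMSO). Reaction started with 2 μM ATP and run to about 50% ATP depletion. Remaining ATP measured by KinaseGlo luminescence.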
Sequence of GSK3β (P49841 whole entry, species assumed): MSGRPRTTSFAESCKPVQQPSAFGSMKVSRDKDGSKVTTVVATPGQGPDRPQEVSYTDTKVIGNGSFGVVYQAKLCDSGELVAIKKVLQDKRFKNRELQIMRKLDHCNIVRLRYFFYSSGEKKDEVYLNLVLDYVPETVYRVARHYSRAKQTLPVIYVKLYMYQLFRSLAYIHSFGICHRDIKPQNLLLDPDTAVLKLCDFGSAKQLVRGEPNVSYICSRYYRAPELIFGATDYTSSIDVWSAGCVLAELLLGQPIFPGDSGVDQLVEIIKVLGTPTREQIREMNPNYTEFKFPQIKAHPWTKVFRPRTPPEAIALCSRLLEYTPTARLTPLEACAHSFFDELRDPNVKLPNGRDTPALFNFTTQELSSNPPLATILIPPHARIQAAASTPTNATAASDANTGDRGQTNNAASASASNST

Experiment [1] deals with KMS11 (human myeloma cell line). Put plainly: Cell proliferation assay (CellTiter-Glo), KMS11. In kind it is cell-based. The following applies: Homo sapiens, KMS-11; KMS11-Luc cells. A digest of the protocol: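 KMS11 cells in IMDM with 10% FBS and sodium pyruvate, seeded at 2000 cells/well on assay day. Compound added at 2× to equal volume of cells, incubated 3 days at 37° C. Viability read by CellTiter-Glo luminescence; EC50 derived.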
For orientation: Cellular ATP, detected with luciferase, serves as a proxy for viable cell number.

Sequence of PIM2 (Q9P1W9 whole entry): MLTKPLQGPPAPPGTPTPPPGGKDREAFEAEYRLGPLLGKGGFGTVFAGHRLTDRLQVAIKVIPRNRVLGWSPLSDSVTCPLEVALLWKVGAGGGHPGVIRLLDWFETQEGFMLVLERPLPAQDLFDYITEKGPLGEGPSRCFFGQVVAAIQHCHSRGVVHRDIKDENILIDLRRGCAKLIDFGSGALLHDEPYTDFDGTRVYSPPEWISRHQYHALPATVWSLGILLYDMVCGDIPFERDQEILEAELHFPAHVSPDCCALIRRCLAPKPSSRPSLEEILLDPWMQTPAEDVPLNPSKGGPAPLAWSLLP

The IC50 is the concentration that gives 50% inhibition. The EC50 is the concentration at which the effect is half-maximal. Read a high EC50 as weaker potency. For `CC(C)NC(=O)c1ccc(F)c(-c2nc(C(=O)Nc3cnccc3[C@H]3C[C@@H](O)[C@](C)(O)[C@@H](C)O3)ccc2F)c1` [Example 105, N-(4-((2R,4R,5S,6R)-4,5-dihydroxy-5,6-dimethyltetrahydro-2H-pyran-2-yl)pyridin-3-yl)-5-fluoro-6-(2-fluoro-5-(isopropylcarbamoyl)phenyl)picolinamide], the IC50 on PIM1 came to 1 nM; against PIM2, 50 nM; against PIM3 it was 6 nM; at GSK3β it was 1180 nM. Besides, the EC50 in experiment [1] came out at 4700 nM.
In the same order, the values of `CC(C)NC(=O)c1ccc(F)c(-c2cccc(C(=O)Nc3cnccc3[C@H]3C[C@@H](O)[C@](C)(O)[C@@H](C)O3)n2)c1` [Example 106, N-(4-((2R,4R,5S,6R)-4,5-dihydroxy-5,6-dimethyltetrahydro-2H-pyran-2-yl)pyridin-3-yl)-6-(2-fluoro-5-(isopropylcarbamoyl)phenyl)picolinamide] are 7 nM, 78 nM, 15 nM, 3590 nM and 9200 nM.
In the same order, the values of `C[C@@H]1O[C@H](c2ccncc2NC(=O)c2ccc(F)c(-c3c(F)cccc3F)n2)C[C@@H](O)[C@H]1O` [Example 107, 6-(2,6-difluorophenyl)-N-(4-((2S,4R,5R,6S)-4,5-dihydroxy-6-methyltetrahydro-2H-pyran-2-yl)pyridin-3-yl)-5-fluoropicolinamide] are 2 nM, 20 nM, 4 nM, 196 nM and 5900 nM.
The like results for `C[C@H]1O[C@@H](c2ccncc2NC(=O)c2ccc(F)c(-c3c(F)cccc3F)n2)C[C@H](O)[C@@H]1O` [Example 108, 6-(2,6-difluorophenyl)-N-(4-((2R,4S,5S,6R)-4,5-dihydroxy-6-methyltetrahydro-2H-pyran-2-yl)pyridin-3-yl)-5-fluoropicolinamide] were, in that order, 1 nM, 15 nM, 5 nM, 344 nM and 4200 nM.
`C[C@@H]1O[C@H](c2ccncc2NC(=O)c2csc(-c3c(F)cccc3F)n2)C[C@H](N)[C@H]1O` [Example 113, N-(4-((2S,4S,5R,6S)-4-amino-5-hydroxy-6-methyltetrahydro-2H-pyran-2-yl)pyridin-3-yl)-2-(2,6-difluorophenyl)thiazole-4-carboxamide]: the half-inhibitory concentration (IC50) on PIM1 worked out at 5 nM; against PIM2 it was 142 nM; against PIM3 it was 11 nM; at GSK3β it was 64 nM. Moreover, the EC50 in experiment [1] is over 10000 nM.
As to `C[C@H]1O[C@@H](c2ccncc2NC(=O)c2csc(-c3c(F)cccc3F)n2)C[C@@H](N)[C@@H]1O` [Example 114, N-(4-((2R,4R,5S,6R)-4-amino-5-hydroxy-6-methyltetrahydro-2H-pyran-2-yl)pyridin-3-yl)-2-(2,6-difluorophenyl)thiazole-4-carboxamide], the half-inhibitory concentration (IC50) against PIM1 turned out to be 4 nM; against PIM2, 144 nM; on PIM3, 14 nM; at GSK3β, 652 nM. This compound also came in with a half-maximal effective concentration (EC50) in experiment [1] of 1500 nM.
On to `C[C@H]1O[C@@H](c2ccncc2NC(=O)c2ccc(F)c(-c3c(F)cccc3F)n2)C[C@@H](N)[C@@H]1O` [Example 116, N-(4-((2R,4R,5S,6R)-4-amino-5-hydroxy-6-methyltetrahydro-2H-pyran-2-yl)pyridin-3-yl)-6-(2,6-difluorophenyl)-5-fluoropicolinamide], for which the 50% inhibitory concentration (IC50) at PIM1 is 2 nM; against PIM2, 23 nM; on PIM3, 7 nM; at GSK3β, 3060 nM. This compound yielded an EC50 in experiment [1] of 1900 nM.
The like results for `O=C(Nc1cnccc1C1OCCCO1)c1csc(-c2c(F)cccc2F)n1` [Example 117, N-(4-(1,3-dioxan-2-yl)pyridin-3-yl)-2-(2,6-difluorophenyl)thiazole-4-carboxamide] were, in that order, 8 nM, 2480 nM, 40 nM, 2730 nM and 9500 nM.
`O=C(Nc1cnccc1C1OCCCO1)c1ccc(F)c(-c2c(F)cccc2F)n1` [Example 118, N-(4-(1,3-dioxan-2-yl)pyridin-3-yl)-6-(2,6-difluorophenyl)-5-fluoropicolinamide]: the IC50 on PIM1 worked out at 4 nM; against PIM2 it was 363 nM; against PIM3, 17 nM; at GSK3β, 3520 nM. The compound also yielded an EC50 in experiment [1] of over 10000 nM.
As for `C[C@H]1O[C@@H](c2ccncc2NC(=O)c2ccc(F)c(-c3c(F)cccc3F)n2)C[C@@H](O)[C@@H]1O` [Example 119, 6-(2,6-difluorophenyl)-N-(4-((2R,4R,5S,6R)-4,5-dihydroxy-6-methyltetrahydro-2H-pyran-2-yl)pyridin-3-yl)-5-fluoropicolinamide], the IC50 against PIM1 was determined as 1 nM; on PIM2 it was 11 nM; against PIM3 it was 2 nM; on GSK3β it was 629 nM. In experiment [1], the response was half-maximal at 7200 nM (EC50).
As to `C[C@@H]1O[C@H](c2ccncc2NC(=O)c2ccc(F)c(-c3c(F)cccc3F)n2)C[C@H](O)[C@H]1O` [Example 120, 6-(2,6-difluorophenyl)-N-(4-((2S,4S,5R,6S)-4,5-dihydroxy-6-methyltetrahydro-2H-pyran-2-yl)pyridin-3-yl)-5-fluoropicolinamide], the 50% inhibitory concentration (IC50) is 2 nM at PIM1, 12 nM against PIM2, 3 nM on PIM3 and 798 nM at GSK3β. The EC50 in experiment [1] was over 10000 nM.
Regarding `O=C(Nc1cnccc1[C@@H]1C[C@H](O)CCO1)c1csc(-c2c(F)cccc2F)n1` [Example 130, 2-(2,6-difluorophenyl)-N-(4-((2S,4R)-4-hydroxytetrahydro-2H-pyran-2-yl)pyridin-3-yl)thiazole-4-carboxamide], the concentration for half-maximal inhibition (IC50) at PIM1 amounted to 12 nM; at PIM2, 2350 nM; at PIM3, 84 nM; on GSK3β, 228 nM. For the same compound, the concentration giving a half-maximal response (EC50) in experiment [1] is over 10000 nM.
In the same order, the values of `O=C(Nc1cnccc1[C@H]1C[C@@H](O)CCO1)c1csc(-c2c(F)cccc2F)n1` [Example 131, 2-(2,6-difluorophenyl)-N-(4-((2R,4S)-4-hydroxytetrahydro-2H-pyran-2-yl)pyridin-3-yl)thiazole-4-carboxamide] are 3 nM, 1110 nM, 22 nM, 216 nM and over 10000 nM.
As for `O=C(Nc1cnccc1[C@@H]1C[C@H](O)CCO1)c1ccc(F)c(-c2c(F)cccc2F)n1` [Example 132, 6-(2,6-difluorophenyl)-5-fluoro-N-(4-((2S,4R)-4-hydroxytetrahydro-2H-pyran-2-yl)pyridin-3-yl)picolinamide], the IC50 on PIM1 was 6 nM; at PIM2 it was 465 nM; against PIM3 it was 33 nM; on GSK3β it was 196 nM. In addition, the concentration for a half-maximal effect (EC50) in experiment [1] is over 10000 nM.
As to `O=C(Nc1cnccc1[C@@H]1CCCCO1)c1ccc(F)c(-c2c(F)cccc2F)n1` [Example 133, (S)-6-(2,6-difluorophenyl)-5-fluoro-N-(4-(tetrahydro-2H-pyran-2-yl)pyridin-3-yl)picolinamide], the IC50 came out at 3 nM at PIM1, 214 nM at PIM2, 10 nM against PIM3 and 2200 nM at GSK3β. The half-maximal effective concentration (EC50) in experiment [1] was over 10000 nM.
As for `O=C(Nc1cnccc1[C@H]1CCCCO1)c1ccc(F)c(-c2c(F)cccc2F)n1` [Example 134, (R)-6-(2,6-difluorophenyl)-5-fluoro-N-(4-(tetrahydro-2H-pyran-2-yl)pyridin-3-yl)picolinamide], the IC50 turned out to be 10 nM on PIM1, 678 nM against PIM2, 400 nM at PIM3 and 759 nM at GSK3β. Besides, the 50% effective concentration (EC50) in experiment [1] is over 10000 nM.
As to `N#CC[C@H]1O[C@@H](c2ccncc2NC(=O)c2ccc(F)c(-c3c(F)cccc3F)n2)C[C@@H](O)[C@@H]1O` [Example 137, N-(4-((2R,4R,5S,6R)-6-(cyanomethyl)-4,5-dihydroxytetrahydro-2H-pyran-2-yl)pyridin-3-yl)-6-(2,6-difluorophenyl)-5-fluoropicolinamide], the IC50 was 3 nM at PIM1, 23 nM at PIM2, 5 nM against PIM3 and 351 nM on GSK3β. Besides, the concentration giving a half-maximal response (EC50) in experiment [1] is over 10000 nM.
